Experimental data published in PMC11785709, “Angelica gigas Nakai (Korean Dang-gui) Root Alcoholic Extracts in Health Promotion and Disease Therapy – active Phytochemicals and In Vivo Molecular Targets” (Pharmaceutical Research, 2025).
Values after ≈ are worked out from the molar mass of the structure shown. Values joined by “and” are separate entries in the source; they are usually repeats but may differ in a detail not shown here. Identical values can stand only once. “Also recorded” adds a separate entry of the source. Like-named read-outs stand apart in the source and are kept apart here.

How the values were obtained:
[1] = system: most sensitive bacterial strain; experiment: bactericidal activity of D, MIC; assay type: cell-based; conditions: converted value in brackets; read-out: minimal inhibitory concentration
[2] = system: bacteria; experiment: bactericidal activity of D, MIC (Thailand group); assay type: cell-based; conditions: converted value in brackets
[3] = system: AChE; parameters: method as in PMID 11374978; conditions: read-out: AChE inhibition IC50; cited from earlier work
[4] = system: AR; ERα; conditions: cited from earlier work
[5] = system: human MAO-A; parameters: method as in PMID 28109809; conditions: cited from earlier work
[6] = system: MAO-B; parameters: method as in PMID 28109809; conditions: screened at 10 μM; cited from earlier work
[7] = system: GDH; parameters: method as in PMID 36455296; conditions: read-out: GDH inhibition IC50; cited from earlier work
[8] = system: TRPV1; parameters: method as in PMID 33806325; conditions: capsaicin-induced, F11 cell culture; read-out: TRPV1-Ca2+ release IC50; cited from earlier work
[9] = system: paclitaxel-CINP; parameters: method as in PMID 33806325; conditions: cited from earlier work
[10] = system: kainic acid (KA)-induced status epilepticus; parameters: method as in PMID 25171200; conditions: D ip 20 mg/kg 30 min prior to KA; cited from earlier work
[11] = system: global cerebral ischemia BOCCA model; parameters: method as in PMID 33918660; conditions: cited from earlier work
[12] = system: high fat-diet induced obesity; parameters: method as in PMID 21972114; conditions: HFD plus D 200 mg/kg (ppm), 7 weeks; cited from earlier work
[13] = system: HepG2 cells; parameters: method as in earlier work; conditions: free fatty acid mixture (oleate:palmitate = 2:1); cited from earlier work
[14] = system: adipose stem cells (ASCs); parameters: method as in PMID 31861646; conditions: cited from earlier work
[15] = system: collagen/epinephrine-induced thromboembolism; parameters: method as in PMID 34575088; conditions: D at 12.5 mg/kg; cited from earlier work
[16] = system: most sensitive bacterial strain; parameters: method as in PMID 12877552; conditions: cited from earlier work
[17] = system: bacteria; parameters: method as in doi:10.7324/JAPS201331012; conditions: cited from earlier work
[18] = system: destabilization of medial meniscus (DMM) OA; parameters: method as in PMID 33878544; conditions: daily gavage, 20 mg/kg, 8 weeks after DMM; cited from earlier work
[19] = system: hair growth; parameters: method as in PMID 32823713; conditions: cited from earlier work
[20] = cited from earlier work
[21] = cited from earlier work; remark: listed apart in the source
[22] = system: CYP2C19 and 3A4; conditions: cited from earlier work
[23] = system: carboxyesterase-2 (CES2); conditions: cited from earlier work
[24] = oral AGN 100 mg per rat (~ 300 mg/kg bw); cited from earlier work
[25] = system: AChE; parameters: method as in PMID 17382968; conditions: in vitro test; cited from earlier work
[26] = system: AChE; parameters: method as in PMID 17382968; conditions: ex vivo, 6 h after dose; cited from earlier work
[27] = system: breast cancer cell; parameters: method as in PMID 36830050; conditions: concentration-dependent; cited from earlier work
[28] = system: scopolamine-induced memory disruption; parameters: method as in PMID 17382968; conditions: 10 mg/kg, po; cited from earlier work
[29] = system: HFD-induced obese mice; parameters: method as in PMID 34165214; conditions: daily oral 10 and 20 mg/kg, 5 weeks; cited from earlier work
[30] = system: TNBS-induced colitis; parameters: method as in PMID 39042157; conditions: cited from earlier work
[31] = system: OVX-induced bone loss; parameters: method as in PMID 37866743; conditions: oral nodakenin; cited from earlier work
[32] = system: bone marrow stem cells (BMSCs); parameters: method as in PMID 37866743; conditions: cell culture exposure; cited from earlier work
[33] = system: RANKL-induced osteoclastogenesis; parameters: method as in PMID 37866743; conditions: cell culture model; cited from earlier work
[34] = system: CP-treated mice; parameters: method as in PMID 34875347; conditions: cited from earlier work
[35] = rat, in vivo, iv; cited from earlier work
[36] = rat, in vivo, po, cited from earlier work
[37] = system: MDA-MB231 sc breast cancer xenograft; conditions: 30 mg/kg ip twice weekly, 5-week assay; cited from earlier work
[38] = system: acute thermal pain models and CINP; parameters: method as in PMID 36249788; conditions: once-daily ip; hot plate, tail-flick and CINP mice; cited from earlier work
[39] = topical 0.15% D or 2% AGN root extract

In the case of `CC(C)=CC(=O)O[C@H]1Cc2cc3ccc(=O)oc3cc2OC1(C)C` [D, decursin], the MIC [1] is listed as about 38 µM (≈ 12.5 µg/mL), the MIC [2] is listed as about 98 µM (≈ 32.2 µg/mL) and the IC50 [3] is listed as 390000 nM. For the same compound, the IC50 ([4]; antagonist/degrader) was about 5000 nM, the “mode of action on AR and ERα” value ([4]; responsive cancer cell culture models) was “antagonists/degraders” and the IC50 ([5]; read-out: MAO-A inhibition IC50) was 1890 nM. For the same compound, the Ki ([5]; reversible and competitive inhibitor) was 170 nM, the “inhibitory activity on MAO-B” value [6] was “lacked any inhibitory activity” and the IC50 [7] was ~1000 nM and 1000 nM. The IC50 [8] was about 1000 nM, the mechanical allodynia relief ([9]; first it injection of D 50 mg/kg) was “no relief” and the “duration of blunted allodynia” value ([9]; second and third it injections) was “up to 3 h”. For the same compound, the behavioral seizure activity [10] was “decreased behavioral seizure activity”, the “protection of CA1 pyramidal neurons” value ([11]; oral post-ischemia, AGN 350 and 400 mg/kg or D 25 mg/kg) was “spared the pyramidal neurons from ischemic death; also recorded: detectable protection” and the “spatial memory (8-ARMT) and learning memory (PAT)” value ([11]; post-treatment, 5 days following BOCCA) was “preserved spatial memory”. For the same compound, the weight gain [12] was “decreased weight gain”, the lipid accumulation [13] was “suppressed lipid accumulation” and the adipocyte differentiation [14] was “significantly inhibited adipocyte differentiation”. For the same compound, the protection against thromboembolism [15] was “replicated the protective effect”, the minimal inhibitory concentration [16] was ~ 12.5 mg/L and the MIC [17] was ~ 32 mg/L. The “destruction of articular cartilage” value [18] was “attenuated the destruction of articular cartilage”, the “time at which hair growth was complete” value [19, 39] was 17 days and the “time from which hair growth was visibly facilitated” value [19, 39] was 7 days. The hair growth ([19]; topical twice a day 17 days, 0.15% D or 2% AGN root extract) was “promoted hair growth in equal efficacy”, the “relative circulating Cmax and AUC” value ([20]; in vivo) was about 1 × and the “relative plasma Cmax” value ([20]; in vivo) was 1 x. For the same compound, the Cmax ([20]; read-out: mean peak concentration Cmax, 10 men and 10 women, 800 mg INM176 AGN oral) was 5.3 nM, the t1/2 ([21]; 4.6 g AGN root powder per subject) was 3.03 h and the tmax ([21]; in vivo) was 0.44 h. The “Cyp isoforms for metabolism to DOH” value [22] was “major human isoforms”, the “CES2 contribution to metabolism to DOH” value [23] was “further contributed” and the “elimination of plasma D” value [24] was “barely detectable after 7 h”. The “time of peak absorption, plasma D” value [24] was “around 4 h”.

For `CC(C)(O[C@@H]1O[C@H](CO)[C@@H](O)[C@H](O)[C@H]1O)[C@H]1Cc2cc3ccc(=O)oc3cc2O1` [Nodakenin, nodakenin], the IC50 [3] is given as 68000 nM, the IC50 [25] is given as 84700 nM and the “brain slice AChE activity” value [26] is given as “lowered”. The “breast cancer cell viability” value [27] was “inhibited breast cancer cell viability”, the scopolamine-induced memory disruption [28] was “ameliorate” and the “suppression of weight gain, dyslipidemia and fatty liver” value [29] was “comparable potency to orlistat”. For the same compound, the “downregulation of COX-2 mRNA expression” value ([30]; colon sample, 40 mg/kg) was 1.98 fold, the “downregulation of IL-1β mRNA expression” value ([30]; colon sample, 40 mg/kg) was 1.29 fold and the “downregulation of IL-18 mRNA expression” value ([30]; colon sample, 40 mg/kg) was 1.17 fold. The “downregulation of NFƙB mRNA expression” value ([30]; colon sample, 40 mg/kg) was 1.24 fold, the “downregulation of NLRP3 mRNA expression” value ([30]; colon sample, 40 mg/kg) was 1.78 fold and the “downregulation of iNOS mRNA expression” value ([30]; colon sample, 40 mg/kg) was 1.2 fold. For the same compound, the “disease activity index (DAI) score” value ([30]; gavage 10, 20, and 40 mg/kg) was “lowered the DAI score”, the bone mass [31] was “elevated mouse bone mass” and the osteogenic differentiation [32] was “promoted osteogenic differentiation”. The osteoclastogenesis [33] was “inhibited RANKL-induced osteoclastogenesis”, the “levels of IFN-γ, IL-12, IL-2, IL-6, and TNF-α in serum and spleen” value [34] was “increased” and the “apparent volume of distribution Vd” value ([21]; in vivo) was 2800 L. The t1/2 ([21]; in vivo) was 6.28 h, the t1/2 [35] was 3.3 h and the t1/2 ([36]; 2.5 mg/kg) was 4.6 h. For the same compound, the t1/2 ([36]; 10 mg/kg) was 6.2 h and the xenograft growth inhibition [37] was ~ 88%.

In the case of `CN1CC[C@]23c4c5ccc(O)c4O[C@H]2[C@@H](O)C=C[C@H]3[C@H]1C5` [morphine, reference compound], the “time to tolerance development” value [38] is listed as under 3 days.
